Like-named read-outs stand apart in the source and are kept apart here. Ends that are not written are not given here.
Key:
[1] = In vitro stability in the whole blood; assay type: in vitro ADME, rat
Protocol: After the anesthetization of rats with an i.p. application of the anesthetic mixture, the cerebrospinal fluid (CSF) was collected by cisternal puncture, followed by the collection of whole blood from the polyethylene cannula inserted into the right femoral artery. The blood was heparinized and centrifuged at 15,000 rpm for 10 min at 4 °C, and the supernatant was collected as plasma.
ANA-TA9 was dissolved in PBS at a concentration of 0.1 mg/mL or 1 mg/mL. Immediately before the incubation, 5 μL or 10 μL of the ANA-TA9 solution was added to 45 μL or 90 μL of CSF or plasma, respectively. Similarly, 10 μL of the ANA-TA9 solution was added to 90 μL of whole blood. At predetermined times after the incubation at 37 °C, the samples were cooled by placing them on ice. Methanol (1 mL) was added to the plasma and whole blood for deproteinization. The mixtures were then vortexed and centrifuged at 15,000 rpm for 5 min at 4 °C. The supernatant was transferred to tubes and evaporated to dryness. The residue was reconstituted with 100 μL of the mobile phase of LC/MS mentioned below. The concentrations of ANA-TA9 in the plasma and whole blood were measured by LC/MS. The ANA-TA9 concentrations were measured in the CSF samples by LC/MS without any treatments.
Chromatographic separation was performed using a C18 analytical column (TSKgel ODS 100V, 3 μm, 2.0 mm × 100 mm; TOSOH, Tokyo, Japan). The mobile phase was acetonitrile/0.1% acetic acid (10/90), and the flow rate was 0.2 mL/min. ANA-TA9 eluting from the column was detected with mass spectrometry under the positive mode. Nitrogen gas was used for nebulization at a flow rate of 1.5 L/min. Other conditions (temperature and voltage) were set as the default. The calibration curves of ANA-TA9 in the plasma and the brain were determined.

[2] = In vivo brain distribution study after i.n. and i.p. administration to mice; set-up: species or system Male ddY mice; conditions: mouse; for Tmax: plasma
Protocol: For i.n. administration, ANA-TA9 was dissolved in PBS at a concentration of 100 mg/mL. Since the profile of the concentration in the plasma after i.p. administration was similar with that after i.n. administration, i.p. administration served as the control for i.n. administration. The nasal solution was diluted to 10 mg/mL for i.p. administration. Male ddY mice weighing 25 g were purchased from Japan SLC. The animals were maintained under conventional housing conditions. After anesthetization by the inhalation of isoflurane (2%), ANA-TA9 solution (5 μL each) was administered to both nostrils of the mice. The ANA-TA9 solution (100 μL) was administered peritoneally. After making an incision in the abdomen at 5, 15, 30, 45, 60, and 90 min after administration, blood was collected from the postcaval vein. Soon after the blood sampling, the heparinized ice-cold saline was flushed by perfusion from the left ventricle to remove the blood from the cerebral blood vessel. The whole brain was removed; washed with ice-cold saline; and divided into three sections: olfactory bulb, frontal brain, and occipital brain. The tissue concentrations of ANA-TA9 were measured with LC/MS. The plasma and brain concentrations of ANA-TA9 were determined by LC/MS, LC-20A, and LCMS-2020 (SHIMADZU, Kyoto, Japan). Briefly, 100 μL of the plasma were mixed with 1000 μL of methanol. […] To the dissected brain tissue, 100 μL of ice-cold purified water were added, and the mixture was homogenized under ice-cold conditions. To the homogenate, 4000 μL of ice-cold methanol were added. […] The residues were reconstituted with 100 μL of the mobile phase of the chromatography. In the preliminary study, it was confirmed that the effect of rapid degradation of ANA-TA9 on the assay could be excluded by the treatment on the blood and brain tissues mentioned above. Chromatographic separation was performed using a C18 analytical column (TSKgel ODS 100V, 3 μm, 2.0 mm × 100 mm; TOSOH, Tokyo, Japan). The mobile phase was acetonitrile/0.1% acetic acid (10/90), and the flow rate was 0.2 mL/min. ANA-TA9 eluting from the column was detected with mass spectrometry under the positive mode. Nitrogen gas was used for nebulization at a flow rate of 1.5 L/min. Other conditions (temperature and voltage) were set as the default. The calibration curves of ANA-TA9 in the plasma and the brain were determined. […] For the calculation of the direct transport percentage (DTP), the equation by Fukuda M. et al. was slightly modified. The modified equation is as follows:(1) %DTP=(AUCbrain)IN−(AUCbrain)X/(AUCbrain)IN×100 (2) (AUCbrain)X=(AUCbrain)IP/(AUCplasma)IP×(AUCplasma)IN in the above equation, AUCbrain,i.p. and AUCplasma,i.p. are used in place of AUCbrain,i.v. and AUCplasma,i.v. in the original equation by Fukuda M. et al.

[3] = Storage stability of ANA-TA9 at −40 °C (preliminary study); assay type: physicochemical; conditions: storage at −40 °C (plasma samples)
Protocol: The rats were anesthetized through i.p. administration of a mixture of medetomidine (0.15 mg/kg body weight), midazolam (2 mg/kg body weight), and butorphanol (2.5 mg/kg body weight). The right femoral artery was cannulated with polyethylene tubing. ANA-TA9 was injected into the left femoral vein of 3 rats at a dose of 2 mg (200 μL of a 10 mg/mL PBS solution). Those 3 rats nasally received the same dose of ANA-TA9 (20 μL of a 100 mg/mL PBS solution) under anesthesia. For nasal administration, a micropipette was used. After i.n. administration, the animals were kept conscious in a rat cage (KN-326-III; Natsume, Tokyo, Japan) throughout the experiment after recovery from anesthesia. The PBS solution of ANA-TA9 (12 mg/mL) was infused intravenously for 10 min at a 25 µL/min flow rate. The infused dose was 3 mg/rat. At the appropriate time intervals after administration, blood samples were taken, heparinized, and immediately cooled down on ice, followed by centrifugation at 15,000 rpm for 5 min to obtain the plasma. The plasma samples were stored at −40 °C until the assay. In the preliminary study, it was confirmed that ANA-TA9 stored at −40 °C is stable for at least 2 weeks.

- initial concentration in the whole blood ([1]; rat whole blood (heparinized), 10 μL ANA-TA9 solution added to 90 μL, 37 °C, time 0, LC/MS, three experiments): 80 µg/mL
- concentration of ANA-TA9 in the whole blood 5 min after the start of the incubation ([1]; rat whole blood, 10 μL ANA-TA9 solution added to 90 μL, 37 °C, 5 min, LC/MS, three experiments): 20000 ng/mL
- initial concentration in the whole blood, % of the expected value ([1]; rat whole blood, time 0, LC/MS): 80%
- tissue level at time at 5 min ([2]; male, ddY, in vivo, inhaled or intranasal, 1 mg): 712 ± 54 ng/g
- Tmax ([2]; male, ddY, inhaled or intranasal, 1 mg, i.n., read-out: time of peak plasma concentration, i.n. (converted)): 5 min
- Tmax ([2]; male, ddY, ip, 1 mg, i.p., read-out: time of peak plasma concentration, i.p. (converted)): 5 min
- time of peak concentration in the frontal brain, i.n. ([2]; i.n.): 30 min
- time of peak concentration in the occipital brain, i.n. ([2]; i.n.): 30 min
- time of peak concentration in the olfactory bulb, i.n. ([2]; i.n.): 5 min
- DTP (direct transport percentage), olfactory bulb ([2]; i.n. vs i.p., from the AUC up to 90 min after administration, mean ± SE of four or five animals): 96.3 ± 0.9%
- time of peak concentration in the olfactory bulb, i.p. ([2]; i.p.): 15 min
- apparent half-life in the olfactory bulb after i.n. administration ([2]; in vivo): 15 min
- time after i.n. administration at which ANA-TA9 could be detected in the olfactory bulb ([2]; in vivo): 60 min
- concentration in the olfactory bulb more than 45 min after i.p. application ([2]; in vivo, ip): below the limit of detection
- peak plasma concentration, i.p. relative to i.n. (times higher) ([2]; in vivo, ip): approximately 11 times
- time for which ANA-TA9 stored at −40 °C is stable [3]: at least 2 weeks
Sequence: SKGQAYRMI [ANA-TA9]
